Source: article PMC5608804, “Stepwise Evolution Improves Identification of Diverse Peptides Binding to a Protein Target” (Scientific Reports, 2017)

Target: T1, streptavidin (Streptomyces avidinii, UniProt P22629)
T1 construct: purchased GE Healthcare (Little Chalfont, UK)
Assay: Cy5-streptavidin binding on HotSpot discovery array, 5-mer L-peptide library
Conditions: 5-mer L-peptide library array, Cy5-streptavidin; from average of three arrays
Description: To identify hotspot sequences that bind to streptavidin (SA), we bound Cy5-SA to an array library of 2,476,099 5-mer L-peptides synthesized with 19 of 20 natural amino acids (excluding cysteine). The fluorescence signal intensity was aggregated across three independently synthesized arrays; then the 2,047 peptides with a signal-to-background ratio (S/B) >4 were selected. The data was further filtered to select 1,100 peptides for which signal intensities were highly correlated on all 3 arrays (the percentage of mean deviation to mean was <10%, see Supplementary dataset Table 2A). Most selected sequences (1,019 of 1,100) contained HP, PQ, or PM sequences: their presence would be expected in the well-known HPQ and HPM streptavidin binders[13]–[18].
The comprehensive peptide library included 2,476,099 5-mer peptides synthesized in a single copy with 19 of 20 L- or D-amino acids (excluding cysteine). Libraries were flanked on both N- and C-termini by linkers of 1 or 3 amino acids using a 3:1 glycine-serine mixture.
Cy5™-streptavidin (Cy5-SA) was purchased from GE Healthcare (Little Chalfont, UK). Freshly deprotected arrays were used in each experiment. Streptavidin binding to all arrays was performed with 0.5 µg/ml Cy5-SA either in binding buffer containing 10 mM Tris-HCl (pH 7.4), 1% alkali-soluble casein (EMD Millipore), 0.05% Tween-20 or in 10 mM Tris-HCl (pH 7.4), 4% BSA (Roche, Basel, Switzerland), 0.05% Tween-20 in a 30 mL PAP Jar container (Evergreen Scientific, Vernon, CA) overnight at 4° C. After incubation, arrays were washed in 20 mM Tris-HCl (pH 7.8), 0.2 M NaCl, 1% SDS or 1X TBS (pH 7.4) for 30 sec followed by a 1 min wash in water, and then dried by spinning in a microcentrifuge equipped with an array holder.
Cy5 fluorescence intensity of the arrays was measured with an MS200 scanner (Roche NimbleGen, Madison, WI) at resolution 2 µm, wavelength 635 nm, gain 25%, and laser intensity 100%. Cy5 signal intensities were extracted using Image Extraction Software (Roche NimbleGen). Data pre-processing, normalization, and statistical tests were performed using the language R. Data visualization and analysis was performed with the Spotfire 6.5.0 (Tibco, Boston, MA) software platform. Distance analysis and principle component analysis of distance matrices were performed with the R package PEPLIB[19].

T1 sequence (P22629 25-183): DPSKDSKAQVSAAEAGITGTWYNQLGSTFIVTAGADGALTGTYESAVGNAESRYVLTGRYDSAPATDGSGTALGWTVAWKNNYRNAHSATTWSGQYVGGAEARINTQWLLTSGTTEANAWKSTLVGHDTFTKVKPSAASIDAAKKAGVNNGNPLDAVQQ

Row | Substance | S/B (signal to background ratio)
1 | AHPQM | 32.6
2 | GNHPQ | 132.4
3 | LIHPQ | 120.1
4 | IPHPQ | 167.5
5 | HDHPM | 51.4
6 | HYHPQ | 184.3
7 | HPQFS | 123.4
8 | PNHPQ | 144.0
9 | HPQQN | 23.0
10 | ALHPQ | 123.6
11 | AGHPQ | 137.1
12 | HPQFW | 53.0
13 | VPHPM | 45.9
14 | KHHPM | 29.1
15 | WHPMF | 27.4
16 | GTHPQ | 132.9
17 | PMHPQ | 135.3
18 | YSHPQ | 171.8
19 | YHPQT | 25.8
20 | LSHPM | 55.5
21 | HTHPQ | 139.1
22 | WIHPQ | 166.2
23 | WMHPQ | 194.6
24 | VNHPQ | 137.6
25 | LGAYH [L-amino acid 5-mer array peptide] | 52.2
26 | ASHPQ | 130.1
27 | WAHPQ | 207.5

Row | Substance | S/B (signal to background ratio)
28 | NHHPQ | 128.2
29 | VHHPM | 54.5
30 | NYHPM | 52.9
31 | SGHPM | 54.4
32 | WVHPQ | 169.6
33 | WHPQV | 137.6
34 | PAWAH [L-amino acid 5-mer array peptide] | 50.0
35 | YHPQY | 49.3
36 | MHHPQ | 178.1
37 | EGHPM | 22.4
38 | KKHPQ | 22.5
39 | SLHPM | 46.4
40 | IQHPM | 50.9
41 | RNHPM | 54.6
42 | YYHPQ | 190.0
43 | HPQWG | 26.9
44 | AHHPQ | 131.6
45 | GMHPQ | 126.3
46 | YFHPQ | 183.4
47 | RFHPQ | 161.9
48 | HPQAA | 43.7
49 | THPQQ | 42.4
50 | GPHPQ | 144.4
51 | SHPQF | 132.4
52 | WAHPM | 135.8
53 | HMHPQ | 133.8
54 | GHPQM | 40.8

Same assay, conditions: 5-mer L-peptide library array, Cy5-streptavidin; from the average of three arrays

Row | Substance | S/B (signal to background ratio)
55 | WEHPQ | 98.3
56 | HMHPM | 61.8
57 | LLHPQ | 105.6
58 | QDHPQ | 81.1
59 | VIHPQ | 83.6
60 | DMHPQ | 69.3
61 | VHPQG | 101.6
62 | GRHPM | 62.1
63 | VLHPQ | 115.6
64 | KIHPQ | 60.4
65 | HPQGS | 105.2
66 | IRHPM | 63.6
67 | DRHPQ | 87.4
68 | ENHPQ | 78.3
69 | RGHPM | 58.1
70 | GIHPQ | 100.2
71 | QYHPM | 82.7
72 | ESHPQ | 64.3
73 | EHPQG | 64.3
74 | YPHPM | 98.4
75 | HPQNN | 112.8

Same assay, conditions: 5-mer L-peptide library, from the average of three arrays

Row | Substance | S/B (signal to background ratio)
76 | EVHPM | 5.0
77 | RHPMR | 4.2
78 | GHPMW | 4.4
79 | KHPMF | 4.5
80 | FDEWL [L-amino acid 5-mer array peptide] | 4.8
81 | MHPMI | 4.7
82 | SHPQL | 4.4

Same assay, conditions: average of three arrays, L-peptide 5-mer library

Row | Substance | S/B (signal to background ratio)
83 | FDGWL [L-amino acid 5-mer array peptide] | 6.7
84 | WPPSL [L-amino acid 5-mer array peptide] | 7.7
85 | LAKYH [L-amino acid 5-mer array peptide] | 12.2
86 | LATFH [L-amino acid 5-mer array peptide] | 6.2
87 | FDNWL [L-amino acid 5-mer array peptide] | 9.9
88 | LGGYH [L-amino acid 5-mer array peptide] | 6.1
89 | LGAYH [L-amino acid 5-mer array peptide] | 52.2
90 | FDEWL [L-amino acid 5-mer array peptide] | 4.8
91 | PAWAH [L-amino acid 5-mer array peptide] | 50.0
92 | NWDVI [L-amino acid 5-mer array peptide] | 5.3
93 | NWDQW [L-amino acid 5-mer array peptide] | 6.7

Same assay, conditions: signal to background ratio; 5-mer L-peptide library array, Cy5-streptavidin

Row | Substance | S/B
94 | MHPMR | 10.8
95 | FDGWL [L-amino acid 5-mer array peptide] | 6.7
96 | WPPSL [L-amino acid 5-mer array peptide] | 7.7
97 | HHPQK | 18.7
98 | LAKYH [L-amino acid 5-mer array peptide] | 12.2
99 | LHPMR | 7.0
100 | LATFH [L-amino acid 5-mer array peptide] | 6.2
101 | HPMVS | 8.8
102 | HPQMY | 11.1
103 | HPQRS | 15.9
104 | FDNWL [L-amino acid 5-mer array peptide] | 9.9
105 | LGGYH [L-amino acid 5-mer array peptide] | 6.1
106 | HPMFR | 5.2
107 | NHPQW | 16.4
108 | HPMRN | 8.8
109 | YRGHP | 5.3
110 | HPQMR | 7.1
111 | HPMAF | 18.0
112 | HPQRD | 10.7
113 | HPMMW | 5.7
114 | HPMNA | 17.1
115 | HPQYK | 6.3
116 | NWDVI [L-amino acid 5-mer array peptide] | 5.3
117 | HPMKN | 8.2
118 | NWDQW [L-amino acid 5-mer array peptide] | 6.7
119 | HHPQL | 5.7
120 | HPQPP | 6.0
